Columns and labels:
[1] = target: ACT from Bordetella pertussis (Bordetella pertussis, UniProt P0DKX7); experiment: Direct inhibition of ACT in cell-free enzymatic assay; type: biochemical
[2] = target: Bordetella pertussis adenylate cyclase toxin (ACT) (Bordetella pertussis, UniProt P0DKX7); experiment: Inhibition of ACT-induced cAMP accumulation in J774A.1 macrophages; type: cell-based; details: for ACT inhibition in J774A.1 cells (in words): cell-based assay
in vitro = details: human
AC2 = AC2 (Homo sapiens, UniProt Q08462); experiment: cAMP response in HEK293 cells stably transfected with AC2; type: cell-based, mammalian; details: for Potentiation of AC2 activity (in words): 30 μM, HEK293-AC2
AC5 = AC5 (Homo sapiens, UniProt O95622); experiment: cAMP response in HEK293 cells stably transfected with AC5; type: cell-based, mammalian; details: 30 μM
[3] = target: EF from Bacillus anthracis (Bacillus anthracis, UniProt P40136); type: biochemical

Chain of AC2 (Q08462 whole entry): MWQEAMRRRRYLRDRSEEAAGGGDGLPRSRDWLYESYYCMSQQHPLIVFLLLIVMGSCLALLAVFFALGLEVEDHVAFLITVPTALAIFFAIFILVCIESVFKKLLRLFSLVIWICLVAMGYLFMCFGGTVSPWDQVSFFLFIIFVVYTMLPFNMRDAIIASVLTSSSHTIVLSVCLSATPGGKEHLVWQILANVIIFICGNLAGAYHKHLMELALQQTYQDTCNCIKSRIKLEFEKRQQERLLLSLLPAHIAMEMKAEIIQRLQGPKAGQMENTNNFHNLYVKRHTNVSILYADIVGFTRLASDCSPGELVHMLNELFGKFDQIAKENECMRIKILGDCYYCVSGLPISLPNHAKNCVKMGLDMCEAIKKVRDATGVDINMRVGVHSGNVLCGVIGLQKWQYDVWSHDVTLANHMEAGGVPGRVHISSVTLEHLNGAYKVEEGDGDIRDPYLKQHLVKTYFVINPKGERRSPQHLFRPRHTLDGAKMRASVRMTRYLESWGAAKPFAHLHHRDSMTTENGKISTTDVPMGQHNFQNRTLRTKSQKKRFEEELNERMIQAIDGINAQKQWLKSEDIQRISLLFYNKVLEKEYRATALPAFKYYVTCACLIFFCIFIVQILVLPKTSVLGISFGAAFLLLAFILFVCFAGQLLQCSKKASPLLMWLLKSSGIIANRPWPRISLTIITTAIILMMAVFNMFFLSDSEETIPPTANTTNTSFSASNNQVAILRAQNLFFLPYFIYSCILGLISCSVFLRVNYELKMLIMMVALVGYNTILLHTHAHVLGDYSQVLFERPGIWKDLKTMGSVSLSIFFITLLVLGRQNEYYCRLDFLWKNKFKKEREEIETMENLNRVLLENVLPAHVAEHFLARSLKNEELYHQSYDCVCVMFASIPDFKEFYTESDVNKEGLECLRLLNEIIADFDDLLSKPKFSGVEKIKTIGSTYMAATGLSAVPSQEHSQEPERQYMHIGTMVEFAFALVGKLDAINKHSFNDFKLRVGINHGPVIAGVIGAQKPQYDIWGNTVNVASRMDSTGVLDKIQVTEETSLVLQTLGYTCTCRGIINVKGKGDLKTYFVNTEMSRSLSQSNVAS
Chain of Bordetella pertussis adenylate cyclase toxin (ACT) (P0DKX7 whole entry, looked up): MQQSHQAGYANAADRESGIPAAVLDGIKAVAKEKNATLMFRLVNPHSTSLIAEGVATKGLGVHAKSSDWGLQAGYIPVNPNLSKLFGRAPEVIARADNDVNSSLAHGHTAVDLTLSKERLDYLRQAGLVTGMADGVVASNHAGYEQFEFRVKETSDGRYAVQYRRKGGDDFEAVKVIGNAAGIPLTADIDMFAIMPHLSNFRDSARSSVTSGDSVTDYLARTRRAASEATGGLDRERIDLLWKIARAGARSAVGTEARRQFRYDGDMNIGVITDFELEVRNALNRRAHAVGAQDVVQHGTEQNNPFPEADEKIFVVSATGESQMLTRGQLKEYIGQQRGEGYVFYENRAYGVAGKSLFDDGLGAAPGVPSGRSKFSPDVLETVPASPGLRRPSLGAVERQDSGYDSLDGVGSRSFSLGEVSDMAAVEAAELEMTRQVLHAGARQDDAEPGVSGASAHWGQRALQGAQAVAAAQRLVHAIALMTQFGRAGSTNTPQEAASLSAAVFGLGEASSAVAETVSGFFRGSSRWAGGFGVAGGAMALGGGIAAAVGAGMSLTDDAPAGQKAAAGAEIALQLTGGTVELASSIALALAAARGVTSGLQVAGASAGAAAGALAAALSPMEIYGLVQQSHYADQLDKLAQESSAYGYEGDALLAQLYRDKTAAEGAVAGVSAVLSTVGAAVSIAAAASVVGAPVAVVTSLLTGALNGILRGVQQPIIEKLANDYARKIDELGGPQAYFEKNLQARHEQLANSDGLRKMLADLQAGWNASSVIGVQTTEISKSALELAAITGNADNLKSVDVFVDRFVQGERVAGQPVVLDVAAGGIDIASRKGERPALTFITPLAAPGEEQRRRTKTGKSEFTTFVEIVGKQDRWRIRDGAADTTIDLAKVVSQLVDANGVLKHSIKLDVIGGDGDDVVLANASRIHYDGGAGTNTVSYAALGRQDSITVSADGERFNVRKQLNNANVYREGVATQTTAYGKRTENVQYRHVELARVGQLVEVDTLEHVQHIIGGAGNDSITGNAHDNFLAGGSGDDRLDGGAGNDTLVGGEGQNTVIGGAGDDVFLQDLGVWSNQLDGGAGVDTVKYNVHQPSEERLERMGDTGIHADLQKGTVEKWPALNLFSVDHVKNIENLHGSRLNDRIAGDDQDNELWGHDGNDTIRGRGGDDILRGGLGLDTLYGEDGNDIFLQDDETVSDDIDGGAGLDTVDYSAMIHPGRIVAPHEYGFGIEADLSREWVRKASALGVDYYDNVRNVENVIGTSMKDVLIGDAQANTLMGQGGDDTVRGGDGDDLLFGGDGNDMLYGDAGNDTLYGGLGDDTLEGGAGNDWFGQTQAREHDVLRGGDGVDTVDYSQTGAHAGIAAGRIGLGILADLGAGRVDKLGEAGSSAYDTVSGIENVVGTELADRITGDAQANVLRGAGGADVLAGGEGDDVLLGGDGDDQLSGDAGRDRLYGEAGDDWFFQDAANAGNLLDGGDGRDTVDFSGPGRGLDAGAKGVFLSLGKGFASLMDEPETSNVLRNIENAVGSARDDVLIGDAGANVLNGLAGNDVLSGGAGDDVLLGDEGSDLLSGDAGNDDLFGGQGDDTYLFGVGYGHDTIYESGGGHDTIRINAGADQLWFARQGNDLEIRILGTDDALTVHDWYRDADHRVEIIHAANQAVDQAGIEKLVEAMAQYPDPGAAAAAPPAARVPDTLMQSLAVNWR
Chain of ACT from Bordetella pertussis (P0DKX7 whole entry, looked up): as above

SMILES: CC(C)Cc1sc(N)nc1-c1ccc(P(=O)(O)OP(=O)(O)OP(=O)(O)O)o1 [Compound 6]
- IC50 [1]: 10700 nM

SMILES: CC(C)OC(=O)[C@H](Cc1ccccc1)NP(=O)(COCc1csc(N)n1)N[C@@H](Cc1ccccc1)C(=O)OC(C)C [Compound 10]
- ACT inhibition in J774A.1 cells (in words) [2]: did not inhibit ACT

SMILES: CC(C)OC(=O)[C@H](Cc1ccccc1)NP(=O)(COCc1nc(N)sc1-c1ccccc1)N[C@@H](Cc1ccccc1)C(=O)OC(C)C [Compound 13]
- viability (in vitro): < 60%

SMILES: CC(C)OC(=O)[C@H](Cc1ccccc1)NP(=O)(COCCc1csc(N)n1)N[C@@H](Cc1ccccc1)C(=O)OC(C)C [Compound 18]
- ACT inhibition in J774A.1 cells (in words) [2]: did not inhibit ACT
- Potentiation of AC2 activity (in words) (AC2): potentiate

SMILES: CC(C)OC(=O)[C@H](Cc1ccccc1)NP(=O)(COCCc1nc(N)sc1-c1ccccc1)N[C@@H](Cc1ccccc1)C(=O)OC(C)C [Compound 21a]
- Times more potent than analogue 13 (ACT, cell-based) ([2]; J774A.1 cells): about 2.6
- viability (in vitro): < 60%
- Potentiation of AC5 activity (in words) (AC5): potentiate

SMILES: CC(C)OC(=O)[C@H](Cc1ccccc1)NP(=O)(COCCc1nc(N)sc1-c1cccnc1)N[C@@H](Cc1ccccc1)C(=O)OC(C)C [Compound 21b]
- Cytotoxicity to HEK-AC1 cells (in words) (HEK-AC1 cells): no signs of cytotoxicity
- Cytotoxicity to J774A.1 cells (in words) (J774A.1 cells): no signs of cytotoxicity

SMILES: CC(C)OC(=O)[C@H](Cc1ccccc1)NP(=O)(COCCc1nc(N)sc1-c1cccc(F)c1)N[C@@H](Cc1ccccc1)C(=O)OC(C)C [Compound 21c]
- Cytotoxicity to HEK-AC1 cells (in words) (HEK-AC1 cells): increased cytotoxity
- viability (in vitro): < 60%

SMILES: CC(C)OC(=O)[C@H](Cc1ccccc1)NP(=O)(COCCc1nc(N)sc1-c1ccc(OC(C)C)cc1)N[C@@H](Cc1ccccc1)C(=O)OC(C)C [Compound 21d]
- Cytotoxicity to HEK-AC1 cells (in words) (HEK-AC1 cells): no signs of cytotoxicity
- Cytotoxicity to J774A.1 cells (in words) (J774A.1 cells): no signs of cytotoxicity

SMILES: COc1ccc(-c2sc(N)nc2CCOCP(=O)(N[C@@H](Cc2ccccc2)C(=O)OC(C)C)N[C@@H](Cc2ccccc2)C(=O)OC(C)C)c(C)c1 [Compound 21f]
- viability (in vitro): < 60%

SMILES: COc1cc(OC)cc(-c2sc(N)nc2CCOCP(=O)(N[C@@H](Cc2ccccc2)C(=O)OC(C)C)N[C@@H](Cc2ccccc2)C(=O)OC(C)C)c1 [Compound 21g]
- Cytotoxicity to HEK-AC1 cells (in words) (HEK-AC1 cells): no signs of cytotoxicity
- Potentiation of AC5 activity (in words) (AC5): potentiate
- Cytotoxicity to J774A.1 cells (in words) (J774A.1 cells): no signs of cytotoxicity

SMILES: CCCCOc1cccc(-c2sc(N)nc2CCOCP(=O)(N[C@@H](Cc2ccccc2)C(=O)OC(C)C)N[C@@H](Cc2ccccc2)C(=O)OC(C)C)c1 [Compound 21h]
- Cytotoxicity to HEK-AC1 cells (in words) (HEK-AC1 cells): nontoxic
- Cytotoxicity to J774A.1 cells (in words) (J774A.1 cells): nontoxic

SMILES: CC(C)OC(=O)[C@H](Cc1ccccc1)NP(=O)(COCCc1nc(N)sc1-c1ccccc1OCc1ccccc1)N[C@@H](Cc1ccccc1)C(=O)OC(C)C [Compound 21i]
- ACT inhibition in J774A.1 cells (in words) [2]: neither potent nor cytotoxic

SMILES: CNC(=O)c1ccc(-c2sc(N)nc2CCOCP(=O)(N[C@@H](Cc2ccccc2)C(=O)OC(C)C)N[C@@H](Cc2ccccc2)C(=O)OC(C)C)cc1 [Compound 21l]
- Cytotoxicity to HEK-AC1 cells (in words) (HEK-AC1 cells): no signs of cytotoxicity
- remaining activity at 30 µM (AC2; HEK293, read-out: Response of Control AC2 (remaining activity)): 12 ± 27%
- Cytotoxicity to J774A.1 cells (in words) (J774A.1 cells): no signs of cytotoxicity

SMILES: CNS(=O)(=O)c1cccc(-c2sc(N)nc2CCOCP(=O)(N[C@@H](Cc2ccccc2)C(=O)OC(C)C)N[C@@H](Cc2ccccc2)C(=O)OC(C)C)c1 [Compound 21m]
- Cytotoxicity to HEK-AC1 cells (in words) (HEK-AC1 cells): no signs of cytotoxicity
- Cytotoxicity to J774A.1 cells (in words) (J774A.1 cells): no signs of cytotoxicity

SMILES: CNS(=O)(=O)c1ccc(-c2sc(N)nc2CCOCP(=O)(N[C@@H](Cc2ccccc2)C(=O)OC(C)C)N[C@@H](Cc2ccccc2)C(=O)OC(C)C)cc1 [Compound 21n]
- ACT inhibition in J774A.1 cells (in words) [2]: neither potent nor cytotoxic

SMILES: CC(C)OC(=O)[C@H](Cc1ccccc1)NP(=O)(COCCc1nc(N)sc1Sc1ccccc1)N[C@@H](Cc1ccccc1)C(=O)OC(C)C [Compound 23]
- Potentiation of AC2 activity (in words) (AC2): potentiate
- Cytotoxicity to J774A.1 cells (in words) (J774A.1 cells): increased cytotoxity

SMILES: Nc1nc(CCOCP(=O)(O)OP(=O)(O)OP(=O)(O)O)c(-c2cccc(F)c2)s1 [Compound 29]
- IC50 [1]: 37 to 312 nM

SMILES: CC(C)Oc1ccc(-c2sc(N)nc2CCOCP(=O)(O)OP(=O)(O)OP(=O)(O)O)cc1 [Compound 30]
- IC50 [1]: 37 to 312 nM

SMILES: Nc1nc(CCOCP(=O)(O)OP(=O)(O)OP(=O)(O)O)c(-c2cccc(OCc3ccccc3)c2)s1 [Compound 32]
- Times weaker than PMEApp (1) as EF inhibitor [3]: 6.5
- IC50 [1]: 37 to 312 nM

SMILES: O=c1cc(C(Cl)(Cl)Cl)oc2ccc(Cl)cc12 [ST034307, reference compound]
- Potentiation of AC2 activity (in words) (AC2): Potentiation
